Test results as given in ChEMBL document CHEMBL1126427, “Synthesis of a potent, reversible inhibitor of interleukin-1 converting enzyme” (Bioorg Med Chem Lett, 1992).

Molecular target: T1, Caspase-1 (Homo sapiens, UniProt P29466)
T1 sequence (P29466 whole entry): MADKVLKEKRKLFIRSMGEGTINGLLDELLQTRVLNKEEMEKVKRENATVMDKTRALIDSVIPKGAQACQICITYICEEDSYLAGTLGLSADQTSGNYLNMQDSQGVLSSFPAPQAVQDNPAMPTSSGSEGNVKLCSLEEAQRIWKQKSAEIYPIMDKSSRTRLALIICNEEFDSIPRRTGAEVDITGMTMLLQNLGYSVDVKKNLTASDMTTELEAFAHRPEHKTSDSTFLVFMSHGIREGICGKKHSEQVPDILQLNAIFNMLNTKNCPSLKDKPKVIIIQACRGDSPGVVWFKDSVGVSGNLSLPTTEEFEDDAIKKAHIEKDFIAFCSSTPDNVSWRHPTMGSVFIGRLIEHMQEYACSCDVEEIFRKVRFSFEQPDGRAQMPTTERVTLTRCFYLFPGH
Experiment: The compound was tested for inhibition of IL-1 beta converting enzyme in whole human blood.

CC(=O)N[C@@H](Cc1ccc(O)cc1)C(=O)N[C@H](C(=O)N[C@@H](C)C(=O)N[C@H](C=O)CC(=O)O)C(C)C gave a Ki of 760 pM.
